Columns and labels:
Type in all cases: in vivo
ducksalad = assay: Test Example 1: herbicidal effects in preemergence treatment under submerged conditions; conditions: dose 2.52 g/a
In short: (§1)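 Weed seeds and 2.5-leaf rice seedlings shared each flooded cup of alluvial soil. Dosing, expressed as g per are, was by pouring water-diluted emulsifiable concentrate onto the surface on sowing day. Mortality was graded 0 to 5 after three weeks' growth.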

barnyardgrass [1] = assay: as above; conditions: dose 2.52 g/a
In short: as §1

bulrush = assay: as above; conditions: dose 2.52 g/a
In short: as §1

barnyardgrass [2] = assay: Comparative Example 1: herbicidal effects in preemergence treatment on barnyardgrass under submerged conditions; conditions: applied to water surface on the day of seeding, three weeks after application
Description: Comparative Example 1 Test on the Herbicidal Effects in Preemergence Treatment on Barnyardgrass Under Submerged Conditions Alluvial soil was put in 1/30000-are styrol cups and admixed with water so that it was submerged at a depth of 4 cm. In each cup, seeds of barnyardgrass were sown, and on the same day as the seeding, emulsifiable concentrates containing compounds of the present invention formulated in accordance with Formulation Example 2 were applied to the water surfaces at predetermined doses after diluted with water. The cups were placed in a greenhouse at 25 to 30° C. to grow the plants. Three weeks after the application, the herbicidal effects against barnyardgrass were determined on the following evaluation scale. The symbol A in the table means barnyardgrass.

transplanted rice = assay: Test Example 1: preemergence treatment under submerged conditions, effect on crop; conditions: dose 2.52 g/a
In short: as §1

## CC(C)COC(=O)N(c1ccccc1CN1COCCC1=O)S(=O)(=O)C(F)(F)F [II-3]
ducksalad
  C: ducksalad, herbicidal effect (evaluation scale 0-5): 5 (mortality of 90% or above (nearly complete death))
Barnyardgrass [1]
  A: barnyardgrass, herbicidal effect (evaluation scale 0-5): 5 (mortality of 90% or above (nearly complete death))
bulrush
  B: bulrush, herbicidal effect (evaluation scale 0-5): 5 (mortality of 90% or above (nearly complete death))
Barnyardgrass [2]; dose 0.16 g/a
  herbicidal effect, A (barnyardgrass): 5 (mortality of 90% or above (nearly complete death))
Barnyardgrass [2]; dose 0.64 g/a
  herbicidal effect, A (barnyardgrass): 5 (mortality of 90% or above (nearly complete death))
Barnyardgrass [2]; dose 2.52 g/a
  herbicidal effect, A (barnyardgrass): 5 (mortality of 90% or above (nearly complete death))
Transplanted rice
  a: transplanted rice, effect on crop (evaluation scale 0-5): 0 (mortality of less than 5% (almost ineffective))

From patent publication US20120029187A1, “HALOALKYLSULFONANILIDE DERIVATIVE” (Nissan Chemical Industries, Ltd., priority 2009, published 2012)
